Measured values as given in patent US20230286927A1, “2-PHENYLBENZOTRIAZOL-5-AMINE DERIVATIVES FOR THE TREATMENT AND PROPHYLAXIS OF HEPATITIS B VIRUS (HBV) INFECTION” (priority 2020, published 2023).

Columns and labels:
[1] = Cytotoxicity in PHH natural infection assay (Cell Counting Kit-8); type: cell-based; conditions: HBV-infected primary human hepatocytes, CCK8
Protocol: (§1) Detailed procedures regarding primary human hepatocyte (PHH) HBV natural infection assay are described as below. One tube of frozen PHH (10 million cells) is thawed in 37° C. water bath and then transferred to 20 mL of PHH thawing medium (Sigma, InVitroGRO HT Medium, Cat. S03319) with gently mixing. The cells were then centrifuged at […] for 5 min, the supernatant was discarded and the tube was refilled with 25 mL of PHH plating medium (Sigma, InVitroGRO CP Medium, Cat. S03317). The tube was shaken very gently to re-suspend all cells, and then 50 μl of cells were transferred to each well 384-well collagen I coated plate with appropriate liquid handling equipment, e.g. Integra VIAFLO384 or Agilent Bravo. The cells were then cultured for 24 hours in a cell incubator. For HBV infection, after PHH attachment on the culture plate, the plating medium was removed and replenished with PHH culture medium containing HBV virus. The PHH culture medium was prepared with Dulbecco's Modified Eagle Medium (DMEM)/F12 (1:1 in volume ratio) containing 10% fetal bovine serum (Gibco, Cat. 10099141), 5 ng/mL human epidermal growth factor (Gibco, Cat.PHG031IL), 20 ng/mL dexamethasone (Sigma, Cat.D4902-100 mg), 250 ng/mL human recombinant insulin (Gibco, Cat.41400045) and 100 U/mL penicillin. HBV virus at 200 genome equivalent (GE) per cell with 4% PEG8000 (Sigma, Cat.P1458) containing culture medium were added to the PHH culture medium for infection. The cells were then cultured for 24 hours in cell incubator. Then the cell culture supernatant was removed. The HBV-infected PHH were cultured with sandwich culture method with PHH culture medium containing 1% DMSO and 0.25 mg/mL matrix gel for 72 hours. The supernatant was then refreshed with PHH culture medium containing different concentrations of testing compounds for two times with 72-hour interval. At the end of treatment, the supernatant was collected for viral markers measurements, including HBsAg, HBeAg, HBV DNA and cytotoxicity. HBsAg and HBeAg were detected using alphalisa method using their specific antibodies. For HBV DNA detection, HBV DNA Quantitative Fluorescence Diagnostic Kit (Sansure Biotech Inc.) was used following the manufacture's protocol. Cytotoxicity was determined using Cell Counting Kit-8 (CCK8, Dojindo Molecular Technologies, Inc.).

HBeAg = experiment: PHH natural infection assay, HBeAg (alphalisa); type: cell-based, HBV; conditions: Hepatitis B virus, Hepatocyte, 72 h, read-out: HBeAg IC50
Protocol: as §1
(§2) The compounds of the present invention were tested for their capacity to inhibit HBsAg and HBeAg as described herein.

HBsAg = experiment: PHH natural infection assay, HBsAg (alphalisa); type: cell-based, HBV; conditions: Hepatitis B virus, Hepatocyte, 72 h, read-out: HBsAg IC50
Protocol: as §1, §2

SMILES	CC50 at 144 h [1]	IC50 (HBeAg)	IC50 (HBsAg)
CNC(=O)CCNc1ccc2nn(-c3ccc(Cl)cc3)nc2c1 [Example 37, 3-[[2-(4-Chlorophenyl)benzotriazol-5-yl]amino]-N-methyl-propanamide]	> 100 µM	8.68 µM	4.64 µM
CC(=O)Nc1ccc2nn(-c3ccc(Cl)cc3)nc2c1 [Example 38, N-[2-(4-chlorophenyl)benzotriazol-5-yl]acetamide]	> 100 µM	5.54 µM	3.65 µM
O=C(Nc1ccc2nn(-c3ccc(Cl)cc3)nc2c1)C1CCCCC1 [Example 39, N-[2-(4-chlorophenyl)benzotriazol-5-yl]cyclohexanecarboxamide]	> 100 µM	2.89 µM	3.91 µM
O=C(Nc1ccc2nn(-c3ccc(F)cc3)nc2c1)C1CCOC1 (stereo not drawn) [Example 40, N-[2-(4-fluorophenyl)benzotriazol-5-yl]tetrahydrofuran-3-carboxamide]	> 100 µM	6.76 µM	6.66 µM
O=C(Nc1ccc2nn(-c3ccc(F)cc3)nc2c1)C1CCOCC1 [Example 41, N-[2-(4-fluorophenyl)benzotriazol-5-yl]tetrahydropyran-4-carboxamide]	> 100 µM	2.31 µM	2.19 µM
O=C(Nc1ccc2nn(-c3ccc(F)cc3)nc2c1)C1CCCCO1 (stereo not drawn) [Example 42, N-[2-(4-fluorophenyl)benzotriazol-5-yl]tetrahydropyran-2-carboxamide]	> 100 µM	6.12 µM	6.38 µM
O=C(Nc1ccc2nn(-c3ccc(F)cc3)nc2c1)C1CCCC1 [Example 43, N-[2-(4-fluorophenyl)benzotriazol-5-yl]cyclopentanecarboxamide]	> 100 µM	12.8 µM	8.2 µM
O=C(CC(F)(F)F)Nc1ccc2nn(-c3ccc(F)cc3)nc2c1 [Example 44, 3,3,3-trifluoro-N-[2-(4-fluorophenyl)benzotriazol-5-yl]propanamide]	> 100 µM	11.7 µM	6.87 µM
O=C(Nc1ccc2nn(-c3ccc(Cl)cc3)nc2c1)C1CCOCC1 [Example 45, N-[2-(4-chlorophenyl)benzotriazol-5-yl]tetrahydropyran-4-carboxamide]	> 100 µM	1.98 µM	3.39 µM
O=C(Nc1ccc2nn(-c3ccc(Cl)cc3)nc2c1)C1CCCCO1 (stereo not drawn) [Example 46, N-[2-(4-chlorophenyl)benzotriazol-5-yl]tetrahydropyran-2-carboxamide]	> 100 µM	1.14 µM	2.68 µM
O=C(Nc1ccc2nn(-c3ccc(Cl)cc3)nc2c1)C1COCCO1 (stereo not drawn) [Example 47, N-[2-(4-chlorophenyl)benzotriazol-5-yl]-1,4-dioxane-2-carboxamide]	> 100 µM	1.84 µM	3.73 µM
O=C(Nc1ccc2nn(-c3ccc(Cl)cc3)nc2c1)C1CCOC1 (stereo not drawn) [Example 48, N-[2-(4-chlorophenyl)benzotriazol-5-yl]tetrahydrofuran-3-carboxamide]	> 100 µM	3.12 µM	4.81 µM
O=C(Nc1ccc2nn(-c3ccc(Cl)cc3)nc2c1)C1CCCC1 [Example 49, N-[2-(4-chlorophenyl)benzotriazol-5-yl]cyclopentanecarboxamide]	> 100 µM	1.29 µM	2.84 µM
O=C(Nc1ccc2nn(-c3ccc(Cl)cc3)nc2c1)C1CCCO1 (stereo not drawn) [Example 50, N-[2-(4-chlorophenyl)benzotriazol-5-yl]tetrahydrofuran-2-carboxamide]	> 100 µM	1.37 µM	1.26 µM
O=C(CC(F)(F)F)Nc1ccc2nn(-c3ccc(Cl)cc3)nc2c1 [Example 51, N-[2-(4-chlorophenyl)benzotriazol-5-yl]-3,3,3-trifluoro-propanamide]	> 100 µM	1.66 µM	4.09 µM
O=C(CCC(F)(F)F)Nc1ccc2nn(-c3ccc(Cl)cc3)nc2c1 [Example 52, N-[2-(4-chlorophenyl)benzotriazol-5-yl]-4,4,4-trifluoro-butanamide]	> 100 µM	1.89 µM	2.25 µM
NC(=S)Nc1ccc2nn(-c3ccc(Cl)cc3)nc2c1 [Example 53, [2-(4-Chlorophenyl)benzotriazol-5-yl]thiourea]	> 100 µM	2.87 µM	3.37 µM
CNC(=S)Nc1ccc2nn(-c3ccc(Cl)cc3)nc2c1 [Example 54, 1-[2-(4-chlorophenyl)benzotriazol-5-yl]-3-methyl-thiourea]	> 100 µM	4.59 µM	2.68 µM
CC(=O)NC(=S)Nc1ccc2nn(-c3ccc(Cl)cc3)nc2c1 [Example 55, N-[[2-(4-chlorophenyl)benzotriazol-5-yl]carbamothioyl]acetamide]	> 100 µM	5.1 µM	2.97 µM
O=C(NC(=S)Nc1ccc2nn(-c3ccc(Cl)cc3)nc2c1)C1CCCC1 [Example 56, N-[[2-(4-chlorophenyl)benzotriazol-5-yl]carbamothioyl]cyclopentanecarboxamide]	> 100 µM	7.5 µM	3.45 µM
CC(C)C(=O)NC(=S)Nc1ccc2nn(-c3ccc(Cl)cc3)nc2c1 [Example 57, N-[[2-(4-chlorophenyl)benzotriazol-5-yl]carbamothioyl]-2-methyl-propanamide]	> 100 µM	3.72 µM	2.5 µM
O=C(NC(=S)Nc1ccc2nn(-c3ccc(Cl)cc3)nc2c1)c1ccccc1 [Example 58, N-[[2-(4-chlorophenyl)benzotriazol-5-yl]carbamothioyl]benzamide]	> 100 µM	1.27 µM	1.17 µM
Cc1cc2nn(-c3ccc(Cl)cc3)nc2cc1NC(=S)NC(=O)c1ccccc1 [Example 59, N-[[2-(4-chlorophenyl)-6-methyl-benzotriazol-5-yl]carbamothioyl]benzamide]	> 100 µM	3.04 µM	1.11 µM
Cc1cc2nn(-c3ccc(Cl)cc3)nc2cc1NC(N)=S [Example 60, [2-(4-Chlorophenyl)-6-methyl-benzotriazol-5-yl]thiourea]	> 100 µM	2.31 µM	2.28 µM
CN(C)C(=S)Nc1ccc2nn(-c3ccc(Cl)cc3)nc2c1 [Example 61, 3-[2-(4-Chlorophenyl)benzotriazol-5-yl]-1,1-dimethyl-thiourea]	> 100 µM	1.22 µM	0.79 µM
CC(C)c1csc(Nc2ccc3nn(-c4ccc(Cl)cc4)nc3c2)n1 [Example 62, N-[2-(4-chlorophenyl)benzotriazol-5-yl]-4-isopropyl-thiazol-2-amine]	> 100 µM	5.8 µM	3.8 µM
Clc1ccc(-n2nc3ccc(Nc4nc(-c5ccccc5)cs4)cc3n2)cc1 [Example 63, N-[2-(4-chlorophenyl)benzotriazol-5-yl]-4-phenyl-thiazol-2-amine]	> 100 µM	1.34 µM	1.52 µM
Cc1csc(Nc2ccc3nn(-c4ccc(Cl)cc4)nc3c2)n1 [Example 64, N-[2-(4-chlorophenyl)benzotriazol-5-yl]-4-methyl-thiazol-2-amine]	> 100 µM	3.04 µM	1.42 µM
Cc1nc(Nc2ccc3nn(-c4ccc(Cl)cc4)nc3c2)sc1C [Example 65, N-[2-(4-chlorophenyl)benzotriazol-5-yl]-4,5-dimethyl-thiazol-2-amine]	> 100 µM	2.91 µM	2.67 µM
